Broadly, the IC50 is the concentration that inhibits the measured activity by half. Broadly, the Ki is the equilibrium dissociation constant of an inhibitor or competing ligand from its target.

Entries after “also recorded” stand apart in the source; their conditions may differ. Like-named read-outs stand apart in the source and are kept apart here.

Here are results for 1 compound from US9642819B2, “Low dosage serotonin 5-HT2A receptor agonist to suppress inflammation” (BOARD OF SUPERVISORS OF LOUISIANA STATE UNIVERSITY AND …, priority 2008, dated 2017).

The subject of test [1] is ICAM-1, VCAM-1, and IL-6 gene expression. Description: TNF-α induced proinflammatory gene expression (ICAM-1, VCAM-1, IL-6) by Q-RT-PCR in RASM cells. It counts as cell-based, rat. As to the method: RASM cells and treatment. Rat aortic smooth muscle (RASM) cells were isolated from adult 180 g male Sprague-Dawley rats and provided by the Cell and Molecular Core Facility in the Department of Pharmacology at LSUHSC-NO. Isolated RASM cells were grown in M-199 media containing 10% fetal bovine serum (Gibco), 100 units/mL penicillin, and 100 µg/mL streptomycin, and incubated at 37° C. in 5% CO2. Cells for all assays were used between passages 3 and 5. Prior to treatments, cells were grown in M-199 media with 10% fetal bovine serum (FBS) until 30-50% confluent. For most assays, cells were treated with (R)-DOI, or other drugs as indicated, at specific concentrations for 24 hours, followed by TNF-α (10 ng/ml) and (R)-DOI at the same pretreatment concentrations in fresh M-199 media. After another 24 hours, the cells were scraped, pelleted, and processed for RNA.
RNA isolation and Quantitative Realtime-PCR. RNA was extracted from cells using Illustra RNAspin Mini kits from GE Healthcare Life Sciences (Piscataway, N.J.) following protocols supplied by the manufacturer. First strand cDNA was generated using the ImProm-II cDNA synthesis kit (Promega) following the manufacturers protocols. Q-RT-PCR was performed using the ProbeLibrary system from Roche (Indianapolis, Ind.) in combination with the HotStart-IT probe qpcr master mix from USB Biological (Cleveland, Ohio) following manufactures protocols.
Primers were synthesized by IDT (Coralville, Iowa). ProbeLibrary probes from Roche were: U3, U74, U13, U106, U79 for 5-HT2AR, ICAM-1, VCAM-1, IL-6, and cyclophillin B, respectively. Quantitative determination of gene expression levels using a 2-step cycling protocol was performed on a MyIQ-5 Cycler (Bio-Rad, Hercules Calif.). Relative gene expression levels were calculated using the 2^[−ΔΔC(T)] method. Levels of all targets from the test samples were normalized to rat cyclophillin B expression.
To examine the effects of 5-HT2A receptor activation on TNF-α mediated proinflammatory gene expression, RASM cells were pretreated with (R)-DOI, a selective 5-HT2 receptor agonist, as described above. Dose-response curves were determined for the effects on ICAM-1, VCAM-1, and IL-6 gene expression for twelve different concentrations of (R)-DOI ranging from 0.1 pM to 100 nM, with each experiment repeated in triplicate. In FIGS. 1A-1C, the Y-axis represents a percent of TNF-α for the dose of (R)-DOI indicated on the X-axis.

In the next test the target is 5-HT2A receptor. Particulars: read-out: Affinity=Ki for the receptor; cited from earlier work.

For the compound `COc1cc(C[C@@H](C)N)c(OC)cc1I` [(R)-DOI, (R)-1-(2,5-dimethoxy-4-iodophenyl)-2-aminopropane], in test [1] (1 nM prior to TNF-α 10 ng/ml), the “effect of pretreatment on TNF-α induced increase in proinflammatory gene expression” value was “completely blocked; also recorded: completely inhibits”. Besides, the IC50 in test [1] (RASM cells, TNF-α 10 ng/ml, ICAM-1, VCAM-1, IL-6, read-out: IC50 for inhibition of TNF-α mediated proinflammatory markers) is 10 to 20 pM; in test [1] (Rattus norvegicus, RASM cells, TNF-α 10 ng/ml, ICAM-1, VCAM-1, IL-6, read-out: IC50 for inhibition of TNF-α mediated proinflammatory markers), around 20 pM; in test [1] (Rattus norvegicus, read-out: IC50 in blocking TNF-α mediated inflammation), around 20 pM. Also, the “potency of inhibiting inflammatory marker gene expression relative to any current drug on the market” value in test [1] (greater) is on record as “at least 100 times”. In addition, the “potency relative to the more effective current anti-inflammatory agents” value in test [1] (more potent) is around 300 fold. The “effect of compound alone on baseline expression of ICAM-1, VCAM-1, IL-6” value in test [1] (without TNF-α, 1 nM) is listed as “no effect”. For the same compound, the Ki at 5-HT2A receptor was 500 pM.
